The experiment concerns the target T1, human recombinant mGluR5 (Homo sapiens, UniProt P41594).
T1 construct: expressed in transfected cells; host or cells: HEK 293 cell line
Nature of the experiment: Positive modulation of mGluR5, calcium based FLIPR assay in HEK 293 cells. As to conditions: EC50 of the modulation; HEK 293 cell line expressing human recombinant mGluR5; glutamate at approximately 5% basal stimulation; peak height of Ca release fluorescence signal. The method, then: The positive modulation of mGluR5 is measured in a HEK 293 cell line expressing human recombinant mGluR5 and is detected with calcium based FLIPR assay. The cells are cultured with DMEM supplemented with 10% FCS, 2 μg/mL tetracycline, 100 μg/mL hygromycin and 500 μg/mL gneticin. The cell culture media is exchanged for tetracycline-free cell culture media 3-7 days before the assay. One day before the assay the cell culture medium is exchanged to DMEM without glutamine and phenol red and supplemented with 10% FCS, 100 μg/mL hygromycin and 500 μg/mL geneticin. On the assay day, the medium of the subconfluent cultures is removed and the cells are detached by addition of 2.5 ml EDTA(0.02%) per 175 cm2 culture flask for 1 minute. The cells are resuspend in Ringer solution (140 mM NaCl, 5 mM KCl, 2.5 mM CaCl2, 1.5 mM MgCl2, 5 mM Glucose, 10 mM Hepes; adjusted to pH 7.4 with NaOH), pooled and Ringer solution added to adjust the volume to 50 mL. The cell suspension is centrifuged for […] at 1500 U/min (425 g). The supernatant is removed and the cells washed a second time with 50 ml fresh Ringer solution and centrifuged again as before. The supernatant is again removed and the pellet resuspended in Ringer solution to 1,000,000 cells/ml (1×10^6 cells/mL). The cells are plated onto BD BioCoat Poly-D-Lysine 384 well plates (20.000 cells/well; 20 μl/well). The lid covered plates are then incubated until use at 37° C./10% CO2. For dye loading, 20 μl of Calcium-4 assay kit solution (prepared according to the manufacturer's description in Ringer solution) are added to the cells and the plates are incubated for 80 min 37° C. and then 10 min at room temperature.
Controls, Compound Dilution and Assay Execution:
Each assay plate contained wells with “high” and “low” controls:
Low controls 1% DMSO/ringer solution+basal glutamate activation (defined as 100% CTL).
High controls 10 μM CDPPB+basal glutamate activation (defined as 200% CTL).
Test compounds are dissolved and diluted in DMSO to 100-fold the desired concentrations. In a second step, the compounds are diluted in Ringer solution such that the compounds are 4-fold more concentrated than the desired final assay concentration. The final DMSO concentration was 1%.
20 μl of each compound solution are then transferred to the assay plate and the Ca2+ kinetic is measured to determine any intrinsic compound activity. After 5 min incubation in the FLIPR device, the second stimulation with 20 μl of glutamate in Ringer solution (glutamate concentration adjusted to approximately 5% basal stimulation of the maximal possible glutamate effect) is added and the kinetic Ca2+ response of the wells was measured for the modulation effect.
The peak height of the Ca release related fluorescence signal (9-66) is used for the EC50. The EC50 of the modulation is calculated over a nonlinear regression with GraphPad Prism (Table 1).

T1 sequence (P41594 21-1212): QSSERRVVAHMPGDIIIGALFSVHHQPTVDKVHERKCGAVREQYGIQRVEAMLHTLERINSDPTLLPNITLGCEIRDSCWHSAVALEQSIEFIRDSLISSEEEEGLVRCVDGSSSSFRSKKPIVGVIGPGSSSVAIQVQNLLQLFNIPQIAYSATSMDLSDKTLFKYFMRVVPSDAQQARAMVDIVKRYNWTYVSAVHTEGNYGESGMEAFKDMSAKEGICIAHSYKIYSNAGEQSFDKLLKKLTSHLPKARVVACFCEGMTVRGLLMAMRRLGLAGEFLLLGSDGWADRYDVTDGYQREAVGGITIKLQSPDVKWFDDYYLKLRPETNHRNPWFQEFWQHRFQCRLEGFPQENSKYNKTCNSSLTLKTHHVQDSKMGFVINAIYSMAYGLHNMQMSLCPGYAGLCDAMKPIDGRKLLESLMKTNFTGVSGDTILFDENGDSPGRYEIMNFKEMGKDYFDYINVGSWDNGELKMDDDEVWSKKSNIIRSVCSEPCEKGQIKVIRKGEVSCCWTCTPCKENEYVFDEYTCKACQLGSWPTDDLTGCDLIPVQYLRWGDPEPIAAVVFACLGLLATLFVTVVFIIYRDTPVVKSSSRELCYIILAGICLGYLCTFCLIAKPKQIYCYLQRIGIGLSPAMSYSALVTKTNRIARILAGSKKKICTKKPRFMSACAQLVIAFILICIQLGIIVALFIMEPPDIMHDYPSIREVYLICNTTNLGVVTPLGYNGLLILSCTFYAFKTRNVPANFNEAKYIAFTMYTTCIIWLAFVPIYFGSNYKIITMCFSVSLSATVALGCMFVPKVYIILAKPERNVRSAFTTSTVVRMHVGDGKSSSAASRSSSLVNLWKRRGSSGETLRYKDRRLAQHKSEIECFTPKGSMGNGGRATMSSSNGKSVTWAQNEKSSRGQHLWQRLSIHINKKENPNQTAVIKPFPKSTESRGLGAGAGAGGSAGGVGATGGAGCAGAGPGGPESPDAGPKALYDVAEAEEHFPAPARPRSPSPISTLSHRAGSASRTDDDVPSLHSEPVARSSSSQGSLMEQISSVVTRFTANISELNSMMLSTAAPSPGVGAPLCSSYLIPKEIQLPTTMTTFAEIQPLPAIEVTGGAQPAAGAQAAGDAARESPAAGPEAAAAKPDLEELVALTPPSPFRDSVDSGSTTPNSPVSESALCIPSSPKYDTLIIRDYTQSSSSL

For `O=C(Cc1nc(-c2ccccc2)cn1-c1ccccc1)N1CCN(c2ncccn2)CC1` [Example 7.01.01., 2-(1,4-diphenyl-1H-imidazol-2-yl)-1-(4-pyrimidin-2-yl-piperazin-1-yl)-ethanone], the EC50 is 155 nM.
For `O=C(Cc1nc(-c2ccc(F)cc2)cn1-c1ccc(F)cc1)N1CCN(c2ncccn2)CC1` [Example 7.01.02.] the value was 43 nM.
Regarding `COc1ccc(-c2cn(-c3ccc(OC)cc3)c(CC(=O)N3CCN(c4ncccn4)CC3)n2)cc1` [Example 7.01.03.], the EC50 turned out to be 88 nM.
For `Cc1ccc(-n2cc(-c3ccccc3)nc2CC(=O)N2CCN(c3ncccn3)CC2)cc1` [Example 7.01.04.] the value was 211 nM; for `O=C(Cc1nc(-c2ccc(F)cc2)cn1-c1ccc(F)cc1)N1CCN(c2ccccn2)CC1` [Example 7.02.01., 2-(1,4-Bis-(4-fluoro-phenyl)-1H-imidazol-2-yl)-1-(4-pyridin-2-yl-piperazin-1-yl)-ethanonene], 54 nM.
As to `COc1ccnc(N2CCN(C(=O)Cc3nc(-c4ccc(F)cc4)cn3-c3ccc(F)cc3)CC2)c1` [Example 7.03.01., 2-(1,4-Bis-(4-fluoro-phenyl)-1H-imidazol-2-yl)-1-(4-(4-methoxy-pyridin-2-yl)-piperazin-1-yl)-ethanone], the EC50 came out at 57 nM.
As for `O=C(Cc1nc(-c2ccc(F)cc2)cn1-c1ccc(F)cc1)N1CCN(c2cccnn2)CC1` [Example 7.03.02.], the EC50 came to 112 nM.
The result for `O=C(Cc1nc(-c2ccc(F)cc2)cn1-c1ccc(F)cc1)N1CCN(c2ncncn2)CC1` [Example 7.04.01., 2-(1,4-Bis-(4-fluoro-phenyl)-1H-imidazol-2-yl)-1-(4-[1,3,5]triazin-2-yl-piperazin-1-yl)-ethanone] reads 52 nM; that for `COc1cc(N2CCN(C(=O)Cc3nc(-c4ccc(F)cc4)cn3-c3ccc(F)cc3)CC2)ncn1` [Example 7.04.02.], 80 nM.
In the case of `Cc1ccc(-c2cn(-c3ccc(F)cc3)c(CC(=O)N3CCN(c4cccnn4)CC3)n2)cc1` [Example 7.04.03.], the EC50 was 42 nM.
In the case of `Cc1ccc(-c2cn(-c3ccc(F)cc3)c(CC(=O)N3CCN(c4ncccn4)CC3)n2)cc1` [Example 7.04.04.], the EC50 amounted to 18 nM.
With `COc1ccnc(N2CCN(C(=O)Cc3nc(-c4ccc(C)cc4)cn3-c3ccc(F)cc3)CC2)c1` [Example 7.04.05.], the EC50 was found to be 42 nM.
For `Cc1ccc(-c2cn(-c3ccc(F)cc3)c(CC(=O)N3CCN(c4ccccn4)CC3)n2)cc1` [Example 7.04.06.] the value was 36 nM; for `COc1cc(N2CCN(C(=O)Cc3nc(-c4ccc(C)cc4)cn3-c3ccc(F)cc3)CC2)ncn1` [Example 7.04.07.], 114 nM.
With `Cc1ccc(-c2cn(-c3ccc(F)cc3)c(CC(=O)N3CCN(c4ncncn4)CC3)n2)cc1` [Example 7.04.08.], the EC50 amounted to 41 nM.
As for `COc1cnc(N2CCN(C(=O)Cc3nc(-c4ccc(C)cc4)cn3-c3ccc(F)cc3)CC2)nc1` [Example 7.04.09.], the EC50 is 20 nM.
In the case of `COc1ccc(-c2cn(-c3ccc(F)cc3)c(CC(=O)N3CCN(c4ncccn4)CC3)n2)cc1` [Example 7.04.10.], the EC50 came to 20 nM.
For the molecule `COc1ccc(-c2cn(-c3ccc(F)cc3)c(CC(=O)N3CCN(c4cccnn4)CC3)n2)cc1` [Example 7.04.11.], the EC50 is 40 nM.
With `COc1ccc(-c2cn(-c3ccc(F)cc3)c(CC(=O)N3CCN(c4cc(OC)ccn4)CC3)n2)cc1` [Example 7.04.12.], the EC50 came out at 40 nM.
On to `COc1ccc(-c2cn(-c3ccc(F)cc3)c(CC(=O)N3CCN(c4ccccn4)CC3)n2)cc1` [Example 7.04.13.], for which the EC50 came out at 37 nM.
The result for `COc1ccc(-c2cn(-c3ccc(F)cc3)c(CC(=O)N3CCN(c4cc(OC)ncn4)CC3)n2)cc1` [Example 7.04.14.] reads 33 nM.
Consider `COc1ccc(-c2cn(-c3ccc(F)cc3)c(CC(=O)N3CCN(c4ncncn4)CC3)n2)cc1` [Example 7.04.15.], for which the EC50 worked out at 91 nM.
`COc1ccc(-c2cn(-c3ccc(F)cc3)c(CC(=O)N3CCN(c4ncc(OC)cn4)CC3)n2)cc1` [Example 7.04.16.]: the EC50 came out at 47 nM.
The result for `Cc1cc(-c2cn(-c3ccc(F)cc3)c(CC(=O)N3CCN(c4ncccn4)CC3)n2)ccc1Cl` [Example 7.04.17.] reads 21 nM; that for `Cc1cc(-c2cn(-c3ccc(F)cc3)c(CC(=O)N3CCN(c4ccccn4)CC3)n2)ccc1Cl` [Example 7.04.18.], 30 nM; that for `Cc1cc(-c2cn(-c3ccc(F)cc3)c(CC(=O)N3CCN(c4cccnn4)CC3)n2)ccc1Cl` [Example 7.04.19.], 13 nM.
For the molecule `COc1ccnc(N2CCN(C(=O)Cc3nc(-c4ccc(Cl)c(C)c4)cn3-c3ccc(F)cc3)CC2)c1` [Example 7.04.20.], the EC50 was 69 nM.
Take `COc1cc(N2CCN(C(=O)Cc3nc(-c4ccc(Cl)c(C)c4)cn3-c3ccc(F)cc3)CC2)ncn1` [Example 7.04.21.]: the EC50 was 114 nM.
Regarding `Cc1cc(-c2cn(-c3ccc(F)cc3)c(CC(=O)N3CCN(c4ncncn4)CC3)n2)ccc1Cl` [Example 7.04.22.], the EC50 is 35 nM.
In the case of `Cc1cc(-c2cn(-c3ccc(F)cc3)c(CC(=O)N3CCN(c4ccccn4)CC3)n2)ccc1F` [Example 7.04.23.], the EC50 was found to be 42 nM.
Regarding `Cc1cc(-c2cn(-c3ccc(F)cc3)c(CC(=O)N3CCN(c4cccnn4)CC3)n2)ccc1F` [Example 7.04.24.], the EC50 was found to be 64 nM.
Consider `Cc1cc(-c2cn(-c3ccc(F)cc3)c(CC(=O)N3CCN(c4ncccn4)CC3)n2)ccc1F` [Example 7.04.25.], for which the EC50 came out at 21 nM.
The result for `COc1cc(N2CCN(C(=O)Cc3nc(-c4ccc(F)c(C)c4)cn3-c3ccc(F)cc3)CC2)ncn1` [Example 7.04.26.] reads 41 nM; that for `COc1ccnc(N2CCN(C(=O)Cc3nc(-c4ccc(F)c(C)c4)cn3-c3ccc(F)cc3)CC2)c1` [Example 7.04.27.], 44 nM.
Take `Cc1cc(-c2cn(-c3ccc(F)cc3)c(CC(=O)N3CCN(c4ncncn4)CC3)n2)ccc1F` [Example 7.04.28.]: the EC50 was found to be 24 nM.
`COc1ccc(-c2cn(-c3ccccc3)c(CC(=O)N3CCN(c4cc(OC)ncn4)CC3)n2)cc1` [Example 7.04.29.]: the EC50 was 119 nM.
Regarding `COc1ccc(-c2cn(-c3ccccc3)c(CC(=O)N3CCN(c4ccccn4)CC3)n2)cc1` [Example 7.04.30.], the EC50 was found to be 190 nM.
`COc1ccc(-c2cn(-c3ccccc3)c(CC(=O)N3CCN(c4cc(OC)ccn4)CC3)n2)cc1` [Example 7.04.31.]: the concentration for a half-maximal effect (EC50) came out at 146 nM.
As for `COc1ccc(-c2cn(-c3ccccc3)c(CC(=O)N3CCN(c4ncncn4)CC3)n2)cc1` [Example 7.04.32.], the EC50 came out at 281 nM.
For `COc1ccc(-c2cn(-c3ccccc3)c(CC(=O)N3CCN(c4ncccn4)CC3)n2)cc1` [Example 7.04.33.], the EC50 amounted to 112 nM.
The result for `COc1ccc(-c2cn(-c3ccccc3)c(CC(=O)N3CCN(c4ncc(F)cn4)CC3)n2)cc1` [Example 7.04.34.] reads 95 nM.
Take `COc1ccc(-c2cn(-c3ccccc3)c(CC(=O)N3CCN(c4ncc(OC)cn4)CC3)n2)cc1` [Example 7.04.35.]: the EC50 stood at 76 nM.
For the molecule `COc1ccc(-c2cn(-c3ccc(F)cc3)c(CC(=O)N3CCN(c4ncc(F)cn4)CC3)n2)cc1` [Example 7.04.36.], the half-maximal effective concentration (EC50) stood at 57 nM.
Take `COc1cccc(-c2cn(-c3ccc(F)cc3)c(CC(=O)N3CCN(c4ncccn4)CC3)n2)c1` [Example 7.04.37.]: the EC50 was determined as 46 nM.
Turning to `COc1cccc(-c2cn(-c3ccc(F)cc3)c(CC(=O)N3CCN(c4cc(OC)ncn4)CC3)n2)c1` [Example 7.04.38.], the EC50 was 108 nM.
With `COc1cccc(-c2cn(-c3ccc(F)cc3)c(CC(=O)N3CCN(c4cc(OC)ccn4)CC3)n2)c1` [Example 7.04.39.], the EC50 stood at 106 nM.
For the molecule `COc1cccc(-c2cn(-c3ccc(F)cc3)c(CC(=O)N3CCN(c4ncncn4)CC3)n2)c1` [Example 7.04.40.], the EC50 worked out at 143 nM.
Regarding `COc1cccc(-c2cn(-c3ccc(F)cc3)c(CC(=O)N3CCN(c4ccccn4)CC3)n2)c1` [Example 7.04.41.], the EC50 is 92 nM.

Broadly, the EC50 is the concentration that produces a half-maximal response.

(Values after patent US8937176B2, “Compounds” (Boehringer Ingelheim International GmbH, priority 2011, dated 2015).)
